The results in this text go back to US9920032B2, “Heterocyclic compounds useful as pim kinase inhibitors” (Incyte Corporation, priority 2015, dated 2018).

What all share (format): biochemical
One assay concerns the target Pim-1 (Homo sapiens (Human), UniProt P11309). The assay can be described thus: Pim-1 kinase assay. Particulars: 1 mM ATP; read-out: PIM1 IC50. As for the experimental part:
(§1) Pim-1 and Pim-3 kinase assays—20 μL reactions were run in white 384 well polystyrene plates dotted with 0.8 μL compound/DMSO in the assay buffer (50 mM Tris, pH 7.5, 0.01% Tween-20, 5 mM mgCl2, 0.01% BSA, 5 mM DTT), containing 0.05 μM Biotin-labeled BAD peptide substrate (AnaSpec 62269), 1 mM ATP, and 2.5 pM (Pim-1, Invitrogen PV3503) or 1.25 pM (Pim-3, Millipore 14-738) enzyme for 1 h at 25° C. Reactions were stopped by addition of 10 μL STOP Buffer (150 mM Tris, pH=7.5, 150 mM NaCl, 75 mM EDTA, 0.01% Tween-20, 0.3% BSA,) supplemented with Phospho-Bad (Ser112) Antibody (Cell Signaling 9291) diluted 666-fold, and Streptavidin donor beads (PerkinElmer 6760002) along with Protein-A acceptor beads (PerkinElmer 6760137) at […]. Supplementation of the STOP buffer with beads and stopping the reactions were done under reduced light. Prior to the stopping reactions STOP buffer with beads was preincubated for 1 h in the dark at room temperature. After stopping the reactions, plates were incubated for 1 h in the dark at room temperature before reading on a PHERAstar FS plate reader (BMG Labtech) under reduced light.

A further assay concerns the target Pim-2 (Homo sapiens (Human), UniProt Q9P1W9). The assay can be described thus: Pim-2 kinase assay. To be noted: 1 mM ATP; read-out: PIM2 IC50. As for the experimental part: Pim-2 kinase assay—20 μL reactions were run in white 384 well polystyrene plates dotted with 0.8 μL compound/DMSO in the assay buffer (50 mM Tris, pH 7.5, 0.01% Tween-20, 5 mM mgCl2, 0.01% BSA, 5 mM DTT), containing 0.05 μM Fluorescein-labeled CREBtide peptide substrate (Invitrogen PV3508), 1 mM ATP, and 1 nM enzyme (Invitrogen PV3649) for 2 h at 25° C. Reactions were stopped by addition of 10 μL TR-FRET Dilution Buffer (Invitrogen PV3574) with 30 mM EDTA and 1.5 nM LanthaScreen Tb-CREB pSer133 antibody (Invitrogen PV3566). After 30 min. incubation at room temperature, plates were read on a PHERAstar FS plate reader (BMG Labtech).

A further assay concerns the target Pim-3 (Homo sapiens (Human), UniProt Q86V86). The assay can be described thus: Pim-3 kinase assay. Particulars: 1 mM ATP; read-out: PIM3 IC50. As for the experimental part: as §1

One may read the IC50 as the point on the concentration scale where inhibition reaches its midpoint.

Chain of Pim-2 (Q9P1W9 whole entry): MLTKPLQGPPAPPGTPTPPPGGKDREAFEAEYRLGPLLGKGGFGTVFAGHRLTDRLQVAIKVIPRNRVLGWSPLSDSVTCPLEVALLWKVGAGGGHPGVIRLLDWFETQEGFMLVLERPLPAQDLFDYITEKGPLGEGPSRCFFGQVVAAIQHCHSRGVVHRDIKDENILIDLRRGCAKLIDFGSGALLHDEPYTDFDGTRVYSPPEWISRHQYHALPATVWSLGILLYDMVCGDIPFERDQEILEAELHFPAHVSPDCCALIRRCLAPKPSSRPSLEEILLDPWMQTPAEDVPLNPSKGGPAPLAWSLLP
Chain of Pim-1 (P11309 whole entry): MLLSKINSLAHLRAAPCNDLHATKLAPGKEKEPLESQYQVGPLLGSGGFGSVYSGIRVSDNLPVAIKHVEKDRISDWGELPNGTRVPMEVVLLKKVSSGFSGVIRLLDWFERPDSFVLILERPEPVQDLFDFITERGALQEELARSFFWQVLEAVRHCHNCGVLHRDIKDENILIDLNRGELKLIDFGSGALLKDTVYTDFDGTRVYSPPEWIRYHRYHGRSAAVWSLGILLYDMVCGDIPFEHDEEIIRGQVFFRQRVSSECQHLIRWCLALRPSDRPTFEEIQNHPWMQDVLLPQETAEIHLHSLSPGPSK

For the compound `COCCN(C)c1cnc2c(C(=O)Nc3cnccc3[C@@H]3C[C@H](C)C[C@H](N)C3)ccc(F)c2c1` [Example 51, N-(4-((1R,3S,5S)-3-Amino-5-methylcyclohexyl)pyridin-3-yl)-5-fluoro-3-((2-methoxyethyl)(methyl)amino)quinoline-8-carboxamide], the IC50 was at most 10 nM on Pim-1, 100 to 1000 nM at Pim-2 and at most 10 nM on Pim-3.
Regarding `C[C@@H]1C[C@H](N)C[C@H](c2ccncc2NC(=O)c2ccc(F)c3cc(N4CCC(C#N)CC4)cnc23)C1` [Example 45, N-(4-((1R,3S,5S)-3-Amino-5-methylcyclohexyl)pyridin-3-yl)-3-(4-cyanopiperidin-1-yl)-5-fluoroquinoline-8-carboxamide], the figures for the IC50 on Pim-1, at Pim-2 and at Pim-3 were at most 10 nM, 100 to 1000 nM and 10 to 50 nM, respectively.
For `C[C@@H]1C[C@H](N)C[C@H](c2ccncc2NC(=O)c2ccc(F)c3cc(-c4ccccc4C#N)cnc23)C1` [Example 17, N-{4-[(1R,3S,5S)-3-Amino-5-methylcyclohexyl]pyridin-3-yl}-3-(2-cyanophenyl)-5-fluoroquinoline-8-carboxamide], in that order: at most 10 nM, 100 to 1000 nM and at most 10 nM.
For `CCOC1CN(c2cnc3c(C(=O)Nc4cnccc4[C@@H]4C[C@H](C)C[C@H](N)C4)ccc(F)c3c2)C1` [Example 122, N-(4-((1R,3S,5S)-3-Amino-5-methylcyclohexyl)pyridin-3-yl)-3-(3-ethoxyazetidin-1-yl)-5-fluoroquinoline-8-carboxamide], in that order: at most 10 nM, at most 100 nM and at most 10 nM.
The corresponding values for `CC1CCCCN1c1cnc2c(C(=O)Nc3cnccc3[C@@H]3C[C@H](C)C[C@H](N)C3)cccc2c1` (stereo partly drawn) [Example 70, N-(4-((1R,3S,5S)-3-Amino-5-methylcyclohexyl)pyridin-3-yl)-3-(2-methylpiperidin-1-yl)quinoline-8-carboxamide] are at most 10 nM, 100 to 1000 nM and at most 10 nM.
For `C[C@@H]1C[C@H](N)C[C@H](c2ccncc2NC(=O)c2ccc(F)c3cc(N4CCN(C)C(=O)C4)cnc23)C1` [Example 75, N-(4-((1R,3S,5S)-3-Amino-5-methylcyclohexyl)pyridin-3-yl)-5-fluoro-3-(4-methyl-3-oxopiperazin-1-yl)quinoline-8-carboxamide], the IC50 at Pim-1 is at most 10 nM; at Pim-2 it was at most 100 nM; on Pim-3, at most 10 nM.
On to `C[C@@H]1C[C@H](N)C[C@H](c2ccncc2NC(=O)c2ccc(F)c3cc(N4CCC[C@@H]4C)cnc23)C1` [Example 39, N-(4-((1R,3S,5S)-3-Amino-5-methylcyclohexyl)pyridin-3-yl)-5-fluoro-3-((S)-2-methylpyrrolidin-1-yl)quinoline-8-carboxamide], for which the IC50 was at most 10 nM at Pim-1, at most 100 nM on Pim-2 and 10 to 50 nM on Pim-3.
The corresponding values for `C[C@@H]1C[C@H](N)C[C@H](c2ccncc2NC(=O)c2ccc(F)c3cc(N(C)C4CCCOC4)cnc23)C1` (stereo partly drawn) [Example 151] are at most 10 nM, at most 100 nM and at most 10 nM.
For `C[C@@H]1C[C@H](N)C[C@H](c2ccncc2NC(=O)c2ccc(F)c3cc(N4CCCCCC4)cnc23)C1` [Example 76, N-(4-((1R,3S,5S)-3-Amino-5-methylcyclohexyl)pyridin-3-yl)-3-(azepan-1-yl)-5-fluoroquinoline-8-carboxamide], in that order: at most 10 nM, at most 100 nM and at most 10 nM.
The corresponding values for `C[C@@H]1C[C@H](N)C[C@H](c2ccncc2NC(=O)c2ccc(F)c3cc(N4CCN(S(C)(=O)=O)C[C@H]4C)cnc23)C1` [Example 86, N-(4-((1R,3S,5S)-3-Amino-5-methylcyclohexyl)pyridin-3-yl)-5-fluoro-3-((R)-2-methyl-4-(methylsulfonyl)piperazin-1-yl)quinoline-8-carboxamide] are at most 10 nM, at most 100 nM and at most 10 nM.
Consider `CO[C@@H]1C[C@@H](C)N(c2cnc3c(C(=O)Nc4cnccc4[C@@H]4C[C@H](C)C[C@H](N)C4)ccc(F)c3c2)C1` [Example 156], for which the results for the 50% inhibitory concentration (IC50) on Pim-1, at Pim-2 and on Pim-3 were at most 10 nM, at most 100 nM and at most 10 nM, respectively.
As for `C[C@@H]1C[C@H](N)C[C@H](c2ccncc2NC(=O)c2ccc(F)c3cc(N(C)C4CCC4)cnc23)C1` [Example 24, N-{4-[(1R,3S,5S)-3-Amino-5-methylcyclohexyl]pyridin-3-yl}-3-[cyclobutyl(methyl)amino]-5-fluoroquinoline-8-carboxamide], the IC50 is at most 10 nM on Pim-1, 100 to 1000 nM at Pim-2 and at most 10 nM on Pim-3.
`C[C@@H]1C[C@H](N)C[C@H](c2ccncc2NC(=O)c2ccc(F)c3cc(N4CCCOCC4)cnc23)C1` [Example 102, N-(4-((1R,3S,5S)-3-Amino-5-methylcyclohexyl)pyridin-3-yl)-5-fluoro-3-(1,4-oxazepan-4-yl)quinoline-8-carboxamide]: the IC50 on Pim-1 was at most 10 nM; at Pim-2 it was at most 100 nM; on Pim-3, at most 10 nM.
As for `COc1ccc(N(C)c2cnc3c(C(=O)Nc4cnccc4[C@@H]4C[C@H](C)C[C@H](N)C4)ccc(F)c3c2)cc1` [Example 148, N-(4-((1R,3S,5S)-3-Amino-5-methylcyclohexyl)pyridin-3-yl)-5-fluoro-3-((4-methoxyphenyl)(methyl)amino)quinoline-8-carboxamide], the figures for the IC50 at Pim-1, on Pim-2 and on Pim-3 were at most 10 nM, at most 100 nM and at most 10 nM, respectively.
For the compound `COCCN1CCN(c2cnc3c(C(=O)Nc4cnccc4[C@@H]4C[C@H](C)C[C@H](N)C4)ccc(F)c3c2)CC1=O` [Example 133, N-(4-((1R,3S,5S)-3-Amino-5-methylcyclohexyl)pyridin-3-yl)-5-fluoro-3-(4-(2-methoxyethyl)-3-oxopiperazin-1-yl)quinoline-8-carboxamide], the IC50 is at most 10 nM on Pim-1, 100 to 1000 nM at Pim-2 and at most 10 nM at Pim-3.
In the case of `COc1ccc(N(C)c2cnc3c(C(=O)Nc4cnccc4[C@@H]4C[C@H](C)C[C@H](N)C4)ccc(F)c3c2)c(C)n1` [Example 144, N-(4-((1R,3S,5S)-3-Amino-5-methylcyclohexyl)pyridin-3-yl)-5-fluoro-3-((6-methoxy-2-methylpyridin-3-yl)(methyl)amino)quinoline-8-carboxamide], the IC50 was at most 10 nM on Pim-1, at most 100 nM on Pim-2 and at most 10 nM at Pim-3.
Regarding `C[C@@H]1C[C@H](N)C[C@H](c2ccncc2NC(=O)c2ccc(F)c3cc(N4CCCCO4)cnc23)C1` [Example 109, N-(4-((1R,3S,5S)-3-amino-5-methylcyclohexyl)pyridin-3-yl)-5-fluoro-3-(1,2-oxazinan-2-yl)quinoline-8-carboxamide], the IC50 at Pim-1 is at most 10 nM; at Pim-2, at most 100 nM; at Pim-3, at most 10 nM.
In the case of `C[C@@H]1C[C@H](N)C[C@H](c2ccncc2NC(=O)c2ccc(F)c3cc(N4CC(F)C4)cnc23)C1` [Example 9, N-{4-[(1R,3S,5S)-3-Amino-5-methylcyclohexyl]pyridin-3-yl}-5-fluoro-3-(3-fluoroazetidin-1-yl)quinoline-8-carboxamide], the IC50 on Pim-1 was at most 10 nM; on Pim-2, 100 to 1000 nM; on Pim-3 it was at most 10 nM.
